From patent US10517861B2, “Biomarkers for predicting and assessing responsiveness of endometrial cancer subjects to lenvatinib compounds” (Eisai R&D Management Co., Ltd., priority 2013, dated 2019)

Tested on: patients with advanced or recurrent endometrial cancer (EC)
Assay: Phase II study of E7080 in patients with advanced or recurrent endometrial cancer: tumor response (ORR) and survival (PFS, OS)
Assay type: in vivo, human
Method: Purpose: Angiogenesis is regulated by signaling through multiple growth factor receptors, such as VEGF receptor and FGF receptor. VEGF receptor signaling is also associated with immune cell function. E7080 is an oral angiogenesis inhibitor targeting multiple receptor tyrosine kinase; VEGFR1-3, FGFR1-4, RET, KIT, and PDGFRβ. A phase II study was performed in patients with advanced or recurrent endometrial cancer (EC) following 1 or 2 prior platinum-based treatments (Tx). The importance of angiogenesis in EC highlights the need to understand clinical mechanisms of escape from anti-angiogenic therapy. This clinical biomarker analysis was conducted to identify predictive markers of clinical benefit in EC patients upon E7080 treatment. Circulating cytokine and angiogenic factors (CAFs) can be measured in blood samples using ELISA and multiplex assay platforms. The CAFs examined in this study are listed below in Table 2. Numbers in parenthesis indicate bead region for each analyte.
The purpose of this analysis was to measure cytokine, chemokine and angiogenic factors in blood samples, such as plasma and serum, obtained from patients in clinical trials at both pre- and post-treatment with E7080 and to identify blood biomarkers which can be used to predict whether patients will respond to treatment with E7080. For these analyses, the following criteria of response were employed, namely:
(a) Tumor response: objective response rate (ORR) and % of maximum tumor shrinkage (MTS); and
(b) Survival Benefits: progression free survival (PFS)/overall survival (OS).
Materials and Methods: Patients who had metastatic/unresectable endometrial cancer after 1 or 2 prior platinum-based treatments received lenvatinib until disease progression or development of unmanageable toxicities. Patients received E7080 at a starting dose of 24 mg orally once daily in 28 day cycles. 133 patients were treated and evaluated for efficacy and molecular correlative analysis. This study was a part of the Phase 2 multicenter study of lenvatinib (ClinicalTrial.gov Identifier: NCT01111461). Baseline and post-treatment plasma samples were collected for molecular analyses. Plasma samples were collected at Cycle 1 Day 1 (pre-treatment) and Cycle 2 Day 1 (i.e., day […] post-treatment). Six mL of intravenous blood was drawn into EDTA vacutainer tubes. The tubes were gently inverted 6-8 times and then centrifuged at 3000 RPM for 10 minutes to separate the plasma from the red cell layer. Plasma was collected from the tube and dispensed into a 3.5 mL cryovial using a transfer pipette, and then stored immediately at −20° C. The plasma samples were shipped on dry ice and then ultimately transferred to −80° C. storage. Plasma samples from 122 patients were used for blood biomarker analysis. Serum from Cycle 1 day 1 (baseline), and cycle 2 day 1 were used in this analysis. The association of progression free survival (PFS) and overall survival (OS) were analyzed. Plasma samples were tested in batch format where all timepoints from the same subject were assayed on the same day. On the day of assay, samples were removed from −80° C. and allowed to thaw and reach room temperature. The plasma samples were tested in a panel of ELISA and multiplex kit as per the manufacturer's instructions. The ELISA plates were measured using a Molecular Devices UVmax kinetic microplate reader with SoftMax Pro 5.2 software. The multiplex assays were performed using the Bio-Rad Bio-Plex system with Bio-Plex Manager 4.1 software. Final protein concentrations (pg/mL) were calculated from the standard curve for each assay. Depending on the assay, plasma samples may have been diluted in assay buffer prior to testing. In these cases, protein concentrations were multiplied by the dilution factor.
A cut-off value of Ang-2 was used to test if patients with baseline Ang-2 levels have better clinical outcomes, such as ORR, PFS, and OS. […]

For COc1cc2nccc(Oc3ccc(NC(=O)NC4CC4)c(Cl)c3)c2cc1C(N)=O [E7080, 4-(3-chloro-4-(cyclopropylaminocarbonyl)aminophenoxy)-7-methoxy-6-quinolinecarboxamide], the “Progression-Free Survival (months) Median” value (shortened to “Progression-Free Survival”) (Full Set Analysis (N = 133)) was 5.4 months, the “Objective Response (CR + PR)” value (Full Set Analysis (N = 133), 24 mg orally once daily) was 21.8% and the “Objective Response (CR + PR)” value (High Ang-2 ≥2082.51 (N = 98)) was 17.8%. For the same molecule, the “Overall Survival (months) Median” value (High Ang-2 ≥2082.51 (N = 98)) was 8.9 months, the “Progression-Free Survival” value (High Ang-2 ≥2082.51 (N = 98)) was 3.7 months and the “Objective Response (CR + PR)” value (Low Ang-2 <2082.51 (N = 24)) was 60.9%. For the same molecule, the “Progression-Free Survival” value (Low Ang-2 <2082.51 (N = 24)) was 9.5 months, the “Median PFS” value (baseline ANG2(90), 0-25% subgroup) was 225 days and the “mOS (day) in each quartile” value (baseline ANG2(90), 1st (low) quartile) was 541 days. For the same molecule, the “mOS (day) in each quartile” value (baseline ANG2(90), 2nd quartile) was 353 days, the “mOS (day) in each quartile” value (baseline ANG2(90), 3rd quartile) was 256 days and the “mOS (day) in each quartile” value (baseline ANG2(90), 4th (high) quartile) was 260 days. For the same molecule, the “Median PFS” value (baseline ANG2(90), 25-50% subgroup) was 167 days, the “Median PFS” value (baseline ANG2(90), 50-75% subgroup) was 145 days and the “Median PFS” value (baseline ANG2(90), 75-100% subgroup) was 77 days. For the same molecule, the “Median PFS” value (baseline Ang-2, 0-25% subgroup) was 284 days, the “mOS (day) in each quartile” value (baseline Ang-2, 1st (low) quartile) was 541 days and the “mOS (day) in each quartile” value (baseline Ang-2, 2nd quartile) was 289 days. For the same molecule, the “mOS (day) in each quartile” value (baseline Ang-2, 3rd quartile) was 268 days, the “mOS (day) in each quartile” value (baseline Ang-2, 4th (high) quartile) was 173 days and the “Median PFS” value (baseline Ang-2, 25-50% subgroup) was 167 days. For the same molecule, the “Median PFS” value (baseline Ang-2, 50-75% subgroup) was 112 days, the “Median PFS” value (baseline Ang-2, 75-100% subgroup) was 77 days and the “Median PFS” value (baseline HGF(86), 0-25% subgroup) was 225 days. The “mOS (day) in each quartile” value (baseline HGF(86), 1st (low) quartile) was 567 days, the “mOS (day) in each quartile” value (baseline HGF(86), 2nd quartile) was 452 days and the “mOS (day) in each quartile” value (baseline HGF(86), 3rd quartile) was 273 days. For the same molecule, the “mOS (day) in each quartile” value (baseline HGF(86), 4th (high) quartile) was 253 days, the “Median PFS” value (baseline HGF(86), 25-50% subgroup) was 205 days and the “Median PFS” value (baseline HGF(86), 50-75% subgroup) was 145 days. The “Median PFS” value (baseline HGF(86), 75-100% subgroup) was 109 days, the “Median PFS” value (baseline IL-8(40), 0-25% subgroup) was 281 days and the “mOS (day) in each quartile” value (baseline IL-8(40), 2nd quartile) was 315 days. For the same molecule, the “mOS (day) in each quartile” value (baseline IL-8(40), 3rd quartile) was 340 days, the “mOS (day) in each quartile” value (baseline IL-8(40), 4th (high) quartile) was 127 days and the “Median PFS” value (baseline IL-8(40), 25-50% subgroup) was 222 days. The “Median PFS” value (baseline IL-8(40), 50-75% subgroup) was 145 days, the “Median PFS” value (baseline IL-8(40), 75-100% subgroup) was 71 days and the “Median PFS” value (baseline IP-10(56), 0-25% subgroup) was 167 days. The “Median PFS” value (baseline IP-10(56), 25-50% subgroup) was 174 days, the “Median PFS” value (baseline IP-10(56), 50-75% subgroup) was 220 days and the “Median PFS” value (baseline IP-10(56), 75-100% subgroup) was 77 days. For the same molecule, the “Median PFS” value (baseline MCP-1(58), 0-25% subgroup) was 227 days, the “mOS (day) in each quartile” value (baseline MCP-1(58), 1st (low) quartile) was 463 days and the “mOS (day) in each quartile” value (baseline MCP-1(58), 2nd quartile) was 393 days. The “mOS (day) in each quartile” value (baseline MCP-1(58), 3rd quartile) was 340 days, the “mOS (day) in each quartile” value (baseline MCP-1(58), 4th (high) quartile) was 192 days and the “Median PFS” value (baseline MCP-1(58), 25-50% subgroup) was 155 days. For the same molecule, the “Median PFS” value (baseline MCP-1(58), 50-75% subgroup) was 167 days, the “Median PFS” value (baseline MCP-1(58), 75-100% subgroup) was 111 days and the “mOS (day) in each quartile” value (baseline MIP-1a(64), 2nd quartile) was 293 days. The “mOS (day) in each quartile” value (baseline MIP-1a(64), 3rd quartile) was 353 days.
